# Reference: US5157052A, “Method for inhibiting IgE production” (priority 1990, dated 1992)
# Key:
# Type in all cases: in vivo, mouse (Balb/c female)
# [1] = system: IgD; assay: Splenocyte cell surface density/distribution (FACS): IgD
# Protocol: (§1) One group of 4 unstimulated Balb/c female mice is injected with PBS (Group A). Another (Group B) is injected with 20 μg (±) methyl 11α,16-dihydroxy-16-methyl-9-oxoprosta-5Z,13E-dien-1-oate as in Example 13. […] A 3 cm incision is made with a scalpel above the left hip, and the spleen is cut free from adjoining tissue and placed in a 100 mn plastic culture dish containing 10 ml PBS. The splenic cells are then made into a suspension, by rubbing the spleens between the rough, frosted ends of microscope slides repeatedly until the only remaining particulate matter is connective tissue. Cells are transferred to a 15 ml conical polystyrene tube and centrifuged in a centrifuge at 1200 rpm for 5 minutes. The supernatant is discarded by aspiration and the cell pellet is resuspended in 10 ml PBS, then centrifuged at 1200 rpm for 5 minutes. The supernatant is aspirated and the cell pellet is resuspended in 15 mM Tris, 140 mM Ammonium Chloride, to lyse red blood cells. After incubating at room temperature for 10 minutes the cell suspension is centrifuged at 1200 rpm for 10 minutes. The supernatant is discarded and the cell pellet is resuspended in 10 ml FACS Buffer (PBS containing 0.1% BSA and 0.1% Sodium Azide). The cell suspension is filtered through sterile glass wool plugged in the top of a pasteur pipet. Cells in the flow through are counted using a hemacytometer, then the cell suspension is centrifuged at 1200 rpm for 5 minutes. The supernatant is discarded and the cell pellet is resuspended in a volume of FACS Buffer that will yield 4×10^7 cells/ml. 10 μl (4×10^5 cells) is added to each well of a 96-well V-bottom plate. 25 μl of diluted monoclonal antibody directed against splenocyte cell surface proteins is added to each well: Major Histocompatability Complex (MHC) Class II (M5114, ATCC, Rockville Md.), MHC Class I (M1/42, ATCC), Anti-IgD (JA12.5, ATCC, Rockville, Md.), Thymocyte (Thy)-1 (JIJ, ATCC), B220 (14.8, ATCC), Kappa light chain (187, ATCC), IL-2 Receptor (7D4, ATCC), Lyt-1 (7.313, ATCC) and CD23 (biotinylated B3B4) and incubated on ice for 30 minutes. 100 μl 10% BSA 0.1% sodium azide is added to each well, then the plates are centrifuged at 1200 rpm for 10 minutes. The liquid is removed by aspiration and the cell pellets are resuspended in 100 μl FACS Buffer, and centrifuged at 1200 rpm for 5 minutes. […] Samples are transferred to individual tubes and 10,000 cells are analyzed. Using the Lysis software (Becton Dickinson, Mountain View, Calif.) the mean channel log fluorescence and percent positive cells are determined for the entire cell population. […]
# [2] = system: B220; assay: Splenocyte cell surface density/distribution (FACS): B220
# [3] = system: MHC Class I; assay: Splenocyte cell surface density/distribution (FACS): MHC Class I
# Protocol: as §1
# [4] = anti-IgD stimulated mice, 20 μg days 3 and 4, day 7 (PBS 107)
smiles,measurement,setting,value
"CCCCC(C)(O)C/C=C/[C@H]1[C@H](O)CC(=O)[C@@H]1C/C=C\CCCC(=O)OC (mixture of isomers) [(±) methyl 11α,16-dihydroxy-16-methyl-9-oxoprosta-5Z,13E-dien-1-oate]",Percentage Positive Cells,"[1]; anti-IgD stimulated mice, 20 μg days 3 and 4, day 7 (PBS 21.9)",15.6 ± 8.4%
same,Mean Channel Log Fluorescence,[1]; [4],98 ± 0.5
same,Mean Channel Log Fluorescence,"[1]; unstimulated mice, 20 μg (PBS 130)",132 ± 3.5
same,Percentage Positive Cells,"[1]; unstimulated mice, 20 μg (PBS printed 1.4)",51.8 ± 3.7%
same,Percentage Positive Cells,"[2]; anti-IgD stimulated mice, 20 μg days 3 and 4, day 7 (PBS 49.3)",61.2 ± .9%
same,Mean Channel Log Fluorescence,[2]; [4],112 ± 4
same,Percentage Positive Cells,"[2]; unstimulated mice, 20 μg (PBS 49.6)",50.6 ± 4.6%
same,Mean Channel Log Fluorescence,"[2]; unstimulated mice, 20 μg (PBS 104)",105 ± 2.5
same,Percentage Positive Cells,"[3]; anti-IgD stimulated mice, 20 μg days 3 and 4, day 7 (PBS 48.5)",59.4 ± 5.4%
same,Mean Channel Log Fluorescence,"[3]; anti-IgD stimulated mice, 20 μg days 3 and 4, day 7 (PBS 113)",121 ± 15
same,Percentage Positive Cells,"[3]; unstimulated mice, 20 μg (PBS 57.8)",79 ± 16%
same,Mean Channel Log Fluorescence,"[3]; unstimulated mice, 20 μg (PBS 112)",113 ± 2
